Test results published in patent publication US12516285B2, “Small peptide MIPEP166I and use thereof in plant tissue culture” (Nanjing Forestry University, priority 2023, dated 2026).
Marks after values point to notes of the source that are not given here.

Experiments:
Format in all cases: in vivo, 84K poplar (Populus alba×Populus tremula var. glandulosa)
[1] = tested on: miR166i; assay: RT-qPCR of miR166i in 84K poplar after exogenous peptide treatment
Description: (§1) The three synthetic peptides were each added to MS medium at a concentration of 5 μM as exogenous treatments, while sterile water was chosen as the blank control (CK) treatment (FIG. 1B).
(§2) To investigate the possible role of miPEP166i in its corresponding miRNA biogenesis, RT-qPCR was first used to analyze the abundance changes of pri-miR166i and miR166i in 84K poplar after 24 hours of exogenous treatment.
(§3) During the process of adventitious root elongation, samples collected at 6, 9, and 12 days after cultivation (T1, T2, and T3 stages) were used to detect the expression of miR166i and its targets, aiming to explore the dynamic regulatory pattern of exogenous miPEP166i treatment (FIG. 3A). Due to the equivalence of NSP and IP treatments (FIG. 2G and FIG. 2H), only samples treated with CK, NSP, and miPEP, along with control samples, were used for quantitative miRNA expression and transcriptome sequencing analysis.

[2] = tested on: 84K poplar; assay: Adventitious root formation and elongation in tissue culture on peptide-treated MS medium; conditions: 5 μM in MS medium, plants cultured for two weeks, n=15
Description: as §1
This may be due to the exogenous peptides acting as biological stimulants and osmotic agents, broadly inducing miRNA expression, with the lowest expression of miR166i observed in the CK samples.

[3] = tested on: pri-miR166i; assay: RT-qPCR of pri-miR166i in 84K poplar stem explants after exogenous peptide treatment; conditions: 5 μM in MS medium, 24 hours, vs control treatments
Description: as §1, §2

[4] = tested on: PagHB8; assay: Expression of miR166i target gene PagHB8 (RT-qPCR and RNA-seq)
Excerpt: as §3
(§4) RNA-seq libraries were constructed from the root systems of 84K poplar to investigate the effects of miPEP166i induction on miR166i targets.

[5] = tested on: PagREV; assay: Expression of miR166i target gene PagREV (RT-qPCR and RNA-seq)
Excerpt: as §3, §4

[6] = tested on: root systems of 84K poplar; assay: Time-course transcriptome (RNA-seq), differentially expressed genes; conditions: for differentially expressed genes (DEGs): miPEP vs mock and vs NSP, |log2FC|>1 and FDR<0.05
Excerpt: as §3, §4
(§5) Using time-course transcriptome data from the root systems of 84K poplar, we explored the potential downstream gene expression responses induced by exogenous application of miPEP166i. By cross-comparing miPEP treatment with mock treatment and miPEP treatment with NSP treatment, we identified 114, 130, and 547 differentially expressed genes (DEGs) (|log2FC|>1 and FDR<0.05) at the T1, T2, and T3 stages, respectively. […] These genes are controlled by the master switches of HD-ZIP III transcription factors.

[7] = tested on: Genes in Hormone Metabolism and Signaling Pathways; assay: Time-course transcriptome (RNA-seq), hormone-related genes
Excerpt: as §3, §4, §5
Multiple intersections between hormone signaling and HD-ZIP III activity occur during root elongation. Numerous plant hormone-related genes were found within the DEG set, including genes related to auxin and cytokinin synthesis, (De)conjugation, transport, and signaling (Table 1).

[8] = T1 stage (6 days after culture), P<0.05
[9] = T2 and T3 stages (9 and 12 days after culture)
[10] = T3 stage (12 DAC), miPEP vs NSP

IP: interference control peptide, same amino acids but different sequence, MSDFGGQPTLPFCLSSLNPKSTLK (SEQ ID NO.5)
expression of miR166i compared to NSP samples ([1]; 5 μM in MS medium, stem explants, 24 hours): slightly higher expression of miR166i was observed after IP treatment compared to its expression in NSP samples, the difference was not significant
length of adventitious roots [2]: equivalence
number of adventitious roots [2]: equivalence

NSP: non-specific control peptide of 15 amino acids, CLLNCPIYWQQLREX (SEQ ID NO.4)
length of adventitious roots [2]: equivalence
number of adventitious roots [2]: equivalence

miPEP166i: small peptide encoded by pri-miRNA166i of 84K poplar, amino acid sequence SEQ ID NO.3 (MDGQTPCSLPSLSFGPLFLSNKTK; Populus alba x Populus tremula var. glandulosa)
expression of pri-miR166i [3]: did not result in significant changes
expression of miR166i ([1]; 5 μM in MS medium, stem explants, 24 hours, vs the three control treatments): significantly enhanced
miR166i expression ([1]; T1, T2 and T3 stages (6, 9, 12 days after culture), vs CK and NSP): significant enhancement
length of adventitious roots [2]: significant increase
number of adventitious roots [2]: significant increase
expression of PagHB8 [4, 8]: significantly reduced
expression of PagHB8 [4, 9]: no significant reduction
expression of PagREV [5, 8]: significantly reduced
expression of PagREV [5, 9]: no significant reduction
differentially expressed genes (DEGs) ([6]; T1 stage): 114
differentially expressed genes (DEGs) ([6]; T2 stage): 130
differentially expressed genes (DEGs) ([6]; T3 stage): 547
downregulated genes ([6]; across all three stages): 139
upregulated genes ([6]; across all three stages): 552
expression of genes involved in cellulose and lignin biosynthesis (PagCSLD4, PagCAD7, PagCOBL1, PagPAL2) ([6]; miPEP-treated samples, root transcriptome): upregulated
FC_T1 miPEP/CK, ABCB9 (Pag_G_024492) ([7]; T1 stage (6 DAC), miPEP vs CK): −1.07*
FC_T1 miPEP/CK, CKX3 (Pag_A_037490) ([7]; T1 stage (6 DAC), miPEP vs CK): 4.85*
FC_T1 miPEP/CK, GH3.10 (Pag_A_034334) ([7]; T1 stage (6 DAC), miPEP vs CK): −2.92*
FC_T1 miPEP/CK, GH3.10 (Pag_G_015269) ([7]; T1 stage (6 DAC), miPEP vs CK): −1.67**
FC_T1 miPEP/CK, GH3.10 (Pag_G_025244) ([7]; T1 stage (6 DAC), miPEP vs CK): −4.42*
FC_T1 miPEP/CK, LOG5 (Pag_G_021773) ([7]; T1 stage (6 DAC), miPEP vs CK): −1.91*
FC_T1 miPEP/NSP, ABCB9 (Pag_G_024492) ([7]; T1 stage (6 DAC), miPEP vs NSP): −0.72
FC_T1 miPEP/NSP, CKX3 (Pag_A_037490) ([7]; T1 stage (6 DAC), miPEP vs NSP): 2.61
FC_T1 miPEP/NSP, GH3.10 (Pag_A_034334) ([7]; T1 stage (6 DAC), miPEP vs NSP): −2.2
FC_T1 miPEP/NSP, GH3.10 (Pag_G_015269) ([7]; T1 stage (6 DAC), miPEP vs NSP): −1.21*
FC_T1 miPEP/NSP, GH3.10 (Pag_G_025244) ([7]; T1 stage (6 DAC), miPEP vs NSP): −3.64
FC_T1 miPEP/NSP, LOG5 (Pag_G_021773) ([7]; T1 stage (6 DAC), miPEP vs NSP): −2.14*
FC_T2 miPEP/CK, CKI1 (Pag_A_024550) ([7]; T2 stage (9 DAC), miPEP vs CK): 1.02**
FC_T2 miPEP/CK, CKI1 (Pag_G_014127) ([7]; T2 stage (9 DAC), miPEP vs CK): 0.93*
FC_T2 miPEP/CK, CKX1 (Pag_G_016517) ([7]; T2 stage (9 DAC), miPEP vs CK): −1.17
FC_T2 miPEP/CK, TAA1 (Pag_G_035628) ([7]; T2 stage (9 DAC), miPEP vs CK): 0.74
FC_T2 miPEP/CK, TAA1 (Pag_G_035629) ([7]; T2 stage (9 DAC), miPEP vs CK): 0.78
FC_T2 miPEP/NSP, CKI1 (Pag_A_024550) ([7]; T2 stage (9 DAC), miPEP vs NSP): 1.11**
FC_T2 miPEP/NSP, CKI1 (Pag_G_014127) ([7]; T2 stage (9 DAC), miPEP vs NSP): 1.14**
FC_T2 miPEP/NSP, CKX1 (Pag_G_016517) ([7]; T2 stage (9 DAC), miPEP vs NSP): −2.19*
FC_T2 miPEP/NSP, TAA1 (Pag_G_035628) ([7]; T2 stage (9 DAC), miPEP vs NSP): 1.72*
FC_T2 miPEP/NSP, TAA1 (Pag_G_035629) ([7]; T2 stage (9 DAC), miPEP vs NSP): 1.49**
expression of genes encoding auxin transport proteins (PIN, ABCB, PIN-LIKES) ([7]; T3 stage): significantly increased
FC_T3 miPEP/CK, ABCB8 (Pag_A_020924) ([7]; T3 stage (12 DAC), miPEP vs CK): −1.18**
FC_T3 miPEP/CK, ABCB11 (Pag_A_005381) ([7]; T3 stage (12 DAC), miPEP vs CK): 2.40**
FC_T3 miPEP/CK, ABCB11 (Pag_A_010928) ([7]; T3 stage (12 DAC), miPEP vs CK): 1.90**
FC_T3 miPEP/CK, ABCB11 (Pag_G_007723) ([7]; T3 stage (12 DAC), miPEP vs CK): 2.08**
FC_T3 miPEP/CK, ABCB15 (Pag_A_017535) ([7]; T3 stage (12 DAC), miPEP vs CK): 1.05**
FC_T3 miPEP/CK, ABCB15 (Pag_G_028009) ([7]; T3 stage (12 DAC), miPEP vs CK): 1.21**
FC_T3 miPEP/CK, ABCB25 (Pag_A_009324) ([7]; T3 stage (12 DAC), miPEP vs CK): 1.18
FC_T3 miPEP/CK, ARF11 (Pag_G_003815) ([7]; T3 stage (12 DAC), miPEP vs CK): −1.75**
FC_T3 miPEP/CK, IAA29 (Pag_G_007396) ([7]; T3 stage (12 DAC), miPEP vs CK): −0.94*
FC_T3 miPEP/CK, LOG1 (Pag_A_016041) ([7]; T3 stage (12 DAC), miPEP vs CK): −2.72**
FC_T3 miPEP/CK, LOG3 (Pag_G_010191) ([7]; T3 stage (12 DAC), miPEP vs CK): −1.55
FC_T3 miPEP/CK, PILS3 (Pag_A_012930) ([7]; T3 stage (12 DAC), miPEP vs CK): 4.74*
FC_T3 miPEP/CK, PILS7 (Pag_G_005929) ([7]; T3 stage (12 DAC), miPEP vs CK): 0.96**
FC_T3 miPEP/CK, PIN7 (Pag_A_015236) ([7]; T3 stage (12 DAC), miPEP vs CK): 1.33**
FC_T3 miPEP/CK, PIN8 (Pag_A_008558) ([7]; T3 stage (12 DAC), miPEP vs CK): −1.07*
FC_T3 miPEP/CK, PIN8 (Pag_G_019315) ([7]; T3 stage (12 DAC), miPEP vs CK): 1.02**
FC_T3 miPEP/NSP, ABCB8 (Pag_A_020924) [7, 10]: −0.71
FC_T3 miPEP/NSP, ABCB11 (Pag_A_005381) [7, 10]: 1.34**
FC_T3 miPEP/NSP, ABCB11 (Pag_A_010928) [7, 10]: 1.13*
FC_T3 miPEP/NSP, ABCB11 (Pag_G_007723) [7, 10]: 1.34*
FC_T3 miPEP/NSP, ABCB15 (Pag_A_017535) [7, 10]: 1.11**
FC_T3 miPEP/NSP, ABCB15 (Pag_G_028009) [7, 10]: 1.27**
FC_T3 miPEP/NSP, ABCB25 (Pag_A_009324) [7, 10]: 3.26*
FC_T3 miPEP/NSP, ARF11 (Pag_G_003815) [7, 10]: −1.14*
FC_T3 miPEP/NSP, IAA29 (Pag_G_007396) [7, 10]: −1.21**
FC_T3 miPEP/NSP, LOG1 (Pag_A_016041) [7, 10]: −2.28*
FC_T3 miPEP/NSP, LOG3 (Pag_G_010191) [7, 10]: −1.86*
FC_T3 miPEP/NSP, PILS3 (Pag_A_012930) [7, 10]: −2.93
FC_T3 miPEP/NSP, PILS7 (Pag_G_005929) [7, 10]: 1.03**
FC_T3 miPEP/NSP, PIN7 (Pag_A_015236) [7, 10]: 1.08**
FC_T3 miPEP/NSP, PIN8 (Pag_A_008558) [7, 10]: −0.94
FC_T3 miPEP/NSP, PIN8 (Pag_G_019315) [7, 10]: 1.16**
expression of PagCKI1 (cytokinin signaling) ([7]; miPEP-treated samples): upregulated
expression of PagGH3 (auxin conjugation) ([7]; miPEP-treated samples): downregulated
expression of auxin synthesis gene PagTAA1 ([7]; miPEP-treated samples): significantly upregulated
expression of cytokinin synthesis gene PagLOG ([7]; miPEP-treated samples): significantly downregulated
